The text below walks through data of paper PMC4201147 (Frontiers in Chemistry, 2014).

One data set concerns MCF-7 cells. The data set is described as follows: Agonistic activity screening of targeted peptide library in MCF-7 cells. The format is cell-based. The following applies: biological activity screening in MCF-7 cells, targeted agonist library. From the text: Based on the success of our first-in-class AdipoR agonist ADP355 and recognizing the need for a similar AdipoR antagonist, we modified the composition of ADP355 to attenuate AdipoR functions and signaling. The starting point of the design was the activity of the 396-member peptide library we made earlier and from which the ADP355 agonist was selected, and a new central hexamer named peptide 3–8 (Table 2). […] While Pro1 in the C-terminal octamer (Pro3 in ADP355) is replaceable, Gly2, Tyr4, Phe6, Ala7, and DSer8 should be kept for binding. Because Nva3 recovers activation, Leu, the original amino acid in native adiponectin, should be used in this position. […] In the new antagonist Pro1 was replaced with 1-amino-cyclohexane carboxylic acid (Chex1), extremely useful as an N-terminal cyclic aliphatic amino acid mimic in designer antibacterial peptides (Cudic et al., [2002]). These considerations led to derivative 400 (ADP400), H-Chex-Gly-Leu-Tyr-DSer-Phe-Ala-DSer-NH2 (we called it Chex-DSer-8), as a potential AdipoR antagonist (Tables 1, 2).

The subject of data set [1] is K562 chronic myeloid leukemia (CML) cells. The experiment in a line: K562 CML cell proliferation, 3-day growth inhibition by cell count. It is filed as cell-based, human. How it is done:
(§1) MCF-7 BC and K562 chronic myeloid leukemia (CML) cells were grown in standard RPMI 1640 medium. Seventy-five thousand MCF-7 and 100,000 K-562 cells grown in RPMI 1640 medium containing 10% fetal bovine serum (FBS, for MCF-7) or 0.5% bovine serum albumin (BSA, for K562) were seeded into wells of 24-well culture plates. After 24 h, MCF-7 cells were shifted to K562 medium (serum free). After an additional 24 h, the cultures were treated with various concentrations of peptides or a mixture of peptides for 72 h and counted. The assays were done in triplicates and repeated twice from different cell preparations. The cell numbers were expressed as means ± standard error (SE). Statistical analysis was done with a SlideWrite graphical software package (Encinitas, USA).

Data set [2] is described as follows: Aggregation / precipitation observed during assays. The format is physicochemical. The following applies: during serum stability assay procedure (mouse serum, TCA precipitation) or under the authors' experimental conditions. Here is the method:
(§2) For serum stability studies (Powell et al., [1993]) 10 μL of an aqueous peptide stock solution (3 mg/mL) was added to 390 μL pooled mouse serum in triplicate. The peptide-serum mixtures were thermostated at 37°C. After 0, 30, 120, and 240 min, 95 μL aliquots were mixed with 25 μL trichloroacetic acid (15%, w/v) and incubated for 10 min on ice. The precipitated proteins were separated by centrifugation (5 min, 12,000 × g, Eppendorf MiniSpin). The supernatant (90 μL) was neutralized with 8.5 μL aqueous sodium hydroxide solution (1 M) and mixed with 3% aqueous acetonitrile containing 0.1% TFA (121.5 μL). After centrifugation (5 min, 12,000 × g, Eppendorf MiniSpin) a 100 μL solution was analyzed by RP-HPLC using a Jupiter C18 column (2.0 mm inner diameter, 150 mm length, 5 μm particle size, 30 nm pore size; Phenomenex, Torrance) on a Beckman Gold HPLC System at 60°C. The gradient from 0.1% TFA in water (eluent A) to 60% acetonitrile in 0.1% aqueous TFA (eluent B) was developed using 1% B/min and the amide bond was monitored at 214 nm.

The next data set in a line: Serum stability. The format is in vitro ADME. The following applies: undiluted pooled mouse serum, RP-HPLC at 214 nm, triplicate; for half-life at 0.075 mg/mL: 10 μL of 3 mg/mL peptide in 390 μL serum, 37°C, 0, 30, 120, 240 min, TCA precipitation. Here is the method:
as §2

Data set [3] deals with MCF-7 BC cells. The following applies: ADP400 100 nM with ADP355 100 nM; p = 0.003.
In data set [4] the test system is MCF-7 BC cells. The data set is described as follows: MCF-7 BC cell proliferation, 3-day growth inhibition/promotion by cell count. It is filed as cell-based. Here is the method:
as §1

For data set [5] the following is noted: estimated from degradation kinetics in diluted mouse serum; ref Otvos et al., 2011a; cited from earlier work. From the text: Peptide ADP355 (355) is remarkably stable in mouse serum (Otvos et al., [2011a]). […] This stability level is quite high among peptide therapeutics, and is li ...
The test system of the next data set is normal mice. Particulars: up to a 10 mg/kg bolus intraperitoneal (ip) dose; ref Otvos et al., 2011a; cited from earlier work. From the text: In 2011 we reported on the identification of the adiponectin active site and the design and functional characterization of adiponectin-based peptide compounds for the activation of AdipoR using glioma and breast cancer (BC) model systems (Otvos et al., [2011a]). The lead peptide, the 10-mer ADP355, primarily acts through AdipoR1 and induces typical adiponectin signaling pathways in cancer cells (Otvos et al., [2011a]).

The nature of another data set: pooled mouse serum. Particulars: 37°C, up to 240 min.
Data set [6] deals with K562 chronic myeloid leukemia (CML) cells. Particulars: compared to unrelated human serum albumin; ref Yokota et al., 2000; cited from earlier work. From the text: The cellular models used here were selected among those known to express AdipoR, involve adiponectin in biological responses and yield reproducible results in our hands. Adiponectin protein has been linked to leukemia, lymphoma, and myeloma in individuals with above-average BMI (Obeid and Hebbard, [2012]). Human-origin K562 CML cells express both AdipoR forms although at relatively low levels (Ozturk et al., [2012]).

“Also recorded” adds a separate entry of the source. Where two headings read alike, the source gives them in different places. Positions of bridges follow the written chain, without caps; N, C: chain ends. Non-standard residues stand in square brackets, D forms with d. Residues, ends and D or L forms follow the SMILES beside them. Chains are numbered I, II in the order given. No end group written: not given here. Ac6c = NC1(C(=O)O)CCCCC1; Dab = NCC[C@H](N)C(=O)O; Nva = CCC[C@H](N)C(=O)O

With “PGL[dS]YF[Nva]YHI [compound 290, member of targeted agonist library]”, the Agonistic activity entry with MCF-7 cells is on record as “None”.
Same read-out and setting: for “[dN]IPGLYGFA[dS] [compound 91, member of targeted agonist library]” the value was “Normal”.
Regarding NIPGLYYFAY [compound 25], in the data set on MCF-7 cells, the Agonistic activity entry is on record as “Normal”.
On the same count and under the same terms, next, “HCN[Nva]PG[Nva]YYF [compound 288, member of targeted agonist library]”: “Reduced”.
Take `CCC[C@@H]1NC(=O)[C@@H]2CCCN2C(=O)[C@H]([C@@H](C)CC)NC(=O)[C@@H](CC(N)=O)NC(=O)[C@H](CC(=O)O)NC(=O)[C@H](Cc2c[nH]cn2)NC(=O)[C@@H](CO)NC(=O)[C@H](C)NC(=O)[C@H](Cc2ccccc2)NC(=O)[C@@H](CO)NC(=O)[C@H](Cc2ccc(O)cc2)NC(=O)[C@H](CC(C)C)NC(=O)[C@H](CCC)NC(=O)[C@@H]2CCCN2C(=O)[C@H]([C@@H](C)CC)NC(=O)[C@@H](CC(N)=O)NC(=O)[C@@H]2CCCN2C(=O)[C@H](Cc2c[nH]cn2)NC(=O)[C@@H](CO)NC(=O)[C@H](C)NC(=O)[C@H](Cc2ccccc2)NC(=O)[C@@H](CO)NC(=O)[C@H](Cc2ccc(O)cc2)NC(=O)[C@H](CC(C)C)NC1=O` [compound 398]: the IC50 in [1] (72 h) was 300 nM. The “concentration of maximal effect on K562 proliferation” value in data set [1] (K562, 3-day assay) was 1 µM. Also, the aggregation / precipitation result is recorded as “did aggregate during the serum stability assay” in [2] and “precipitated during the assay procedure” in data set [2] (listed as cyclic dimer).
Turning to `CCC[C@H](NC(=O)[C@@H]1CCCN1C(=O)[C@@H](NC(=O)[C@H](N)CC(N)=O)[C@@H](C)CC)C(=O)N[C@@H](CC(C)C)C(=O)N[C@@H](Cc1ccc(O)cc1)C(=O)N[C@H](CO)C(=O)N[C@@H](Cc1ccccc1)C(=O)N[C@@H](C)C(=O)N[C@H](CO)C(=O)N[C@@H](Cc1c[nH]cn1)C(=O)N1CCC[C@H]1C(=O)NCC[C@H](NC(=O)[C@@H]1CCCN1C(=O)[C@H](Cc1c[nH]cn1)NC(=O)[C@@H](CO)NC(=O)[C@H](C)NC(=O)[C@H](Cc1ccccc1)NC(=O)[C@@H](CO)NC(=O)[C@H](Cc1ccc(O)cc1)NC(=O)[C@H](CC(C)C)NC(=O)[C@H](CCC)NC(=O)[C@@H]1CCCN1C(=O)[C@@H](NC(=O)[C@H](N)CC(N)=O)[C@@H](C)CC)C(N)=O` [ADP399] (I: H-[dN]IP[Nva]LY[dS]FA[dS]HP[Dab]-NH2 / II: H-[dN]IP[Nva]LY[dS]FA[dS]HP; amide I:13-II:C), the half-life (commonly how long it takes for the measured level to halve) at 0.075 mg/mL in “Serum stability” came out at 0.917 h. Further, the remaining at 2 h, 0.075 mg/mL in “Serum stability” (37°C, 2 h, read-out: intact peptide still present after 2 h incubation) was 16%.
Consider “HCN[Nva]PGLYYF [compound 156, member of targeted agonist library]”, for which the Agonistic activity entry in the data set with MCF-7 cells is given as “None”.
The same measure, in the same setting: next, PGLYYF [3–8, new central hexamer]: “None”.
As for `CC(C)C[C@H](NC(=O)CNC(=O)C1(N)CCCCC1)C(=O)N[C@@H](Cc1ccc(O)cc1)C(=O)N[C@H](CO)C(=O)N[C@@H](Cc1ccccc1)C(=O)N[C@@H](C)C(=O)N[C@H](CO)C(N)=O` [ADP400] (H-[Ac6c]GLY[dS]FA[dS]-NH2), the “effect on ADP355-induced MCF-7 growth inhibition” value in the data set with MCF-7 BC cells [3] is reported as “completely ameliorated”. Also, in the data set with MCF-7 BC cells [4] (100 nM, alone, compared with co-treatment, which reached the growth level of 10 nM leptin), the “effect on MCF-7 cell growth without ADP355 present” value was “promoted cell growth to an identical degree”.
As for `CCC[C@H](NC(=O)[C@@H]1CCCN1C(=O)[C@@H](NC(=O)[C@H](N)CC(N)=O)[C@@H](C)CC)C(=O)N[C@@H](CC(C)C)C(=O)N[C@@H](Cc1ccc(O)cc1)C(=O)N[C@H](CO)C(=O)N[C@@H](Cc1ccccc1)C(=O)N[C@@H](C)C(=O)N[C@H](CO)C(N)=O` [ADP355] (H-[dN]IP[Nva]LY[dS]FA[dS]-NH2), the IC50 in [1] (K562, 72 h treatment, 10 nM–10 μM peptide, first assay, IC50 halfway between uninhibited growth and maximal growth inhibition, read-out: relative IC50, inhibition of K562 proliferation) was 200 nM. Besides, the “half-life in whole plasma (estimated)” value in data set [5] was 1.25 h. Moreover, the “toxic properties to normal mice” value in the data set with normal mice was “no toxic properties”. In addition, in the data set “Serum stability”, the half-life at 0.075 mg/mL worked out at 3 h.
As for “NIPGLY[dS]FAY [compound 223, member of targeted agonist library]”, the Agonistic activity entry with MCF-7 cells was “Weakest among P25 analogs”.
The same measure, in the same setting: next, “HCNIPGLYYF [compound 24, member of targeted agonist library]”: “Normal”.
Regarding “leptin: Leptin protein, positive control for exogenous mitogen actions [reference compound]”, in the data set with MCF-7 BC cells [4] (10 nM, positive control for exogenous mitogen), the “promotion of MCF-7 cell growth” value is on record as 10%.
Consider “(H-DAsn-Ile-Pro-Nva-Leu-Tyr-DSer-Phe-Ala-DSer-His-Pro)2-Dab-NH2 (branched)”, for which the cleaved bond result in the data set “pooled mouse serum” is given as “Leu-Tyr; also recorded: Tyr-DSer”.
Take “PGLYYFAYHI [compound 26, member of targeted agonist library]”: the Agonistic activity result in the data set on MCF-7 cells is given as “Normal”.
On the same count and under the same terms, for “NIP[Nva]LYYFAY [compound 157, member of targeted agonist library]” the value was “Increased”.

B1: adiponectin protein: full-sized adiponectin protein, 244 amino acid cytokine (protein, UniProt Q15848 1-244, looked up)
chain: MLLLGAVLLLLALPGHDQETTTQGPGVLLPLPKGACTGWMAGIPGHPGHNGAPGRDGRDGTPGEKGEKGDPGLIGPKGDIGETGVPGAEGPRGFPGIQGRKGEPGEGAYVYRSAFSVGLETYVTIPNMPIRFTKIFYNQQNHYDGSTGKFHCNIPGLYYFAYHITVYMKDVKVSLFKKDKAMLFTYDQYQENNVDQASGSVLLHLEVGDQVWLQVYGEGERNGLYADNDNDSTFTGFLLYHDTN
modifications: full-length
notes: full-sized adiponectin protein, 244 amino acid cytokine
For B1, the “inhibition of relative proliferation rate of K562 cells” value in [6] was 9%.
